From US10745397B2, “1-Substituted 1,2,3,4-tetrahydro-1,7-naphthyridin-8-amine derivatives and their use as EP4 receptor antagonists” (TAKEDA PHARMACEUTICAL COMPANY LIMITED, priority 2015, dated 2020)

What was measured:
[1] = molecular target: T1, hEP4 (C6 glioma cells overexpressing hEP4) (Homo sapiens, UniProt P35408); assay: hEP4 cell based assay (cAMP), inhibition of PGE2 induced cAMP, HTRF; settings: 1 μM compound, PGE2 at EC80
T1 construct: host or cells: C6 glioma cells overexpressing hEP4
T1 sequence (P35408 whole entry): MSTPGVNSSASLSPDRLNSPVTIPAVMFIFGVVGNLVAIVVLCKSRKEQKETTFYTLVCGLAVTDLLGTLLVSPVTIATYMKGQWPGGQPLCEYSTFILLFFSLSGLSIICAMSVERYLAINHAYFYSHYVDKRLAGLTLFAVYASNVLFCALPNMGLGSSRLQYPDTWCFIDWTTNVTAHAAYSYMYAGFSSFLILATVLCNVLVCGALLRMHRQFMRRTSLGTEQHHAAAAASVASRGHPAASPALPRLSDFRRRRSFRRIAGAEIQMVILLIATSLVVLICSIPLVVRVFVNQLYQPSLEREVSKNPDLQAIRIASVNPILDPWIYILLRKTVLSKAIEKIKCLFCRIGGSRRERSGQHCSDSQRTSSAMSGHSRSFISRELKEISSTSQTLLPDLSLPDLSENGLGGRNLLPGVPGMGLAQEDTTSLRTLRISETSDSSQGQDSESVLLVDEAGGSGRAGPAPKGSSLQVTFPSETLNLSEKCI
Method in brief: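 C6 glioma cells overexpressing hEP4 were pre-incubated 15 min with compound plus IBMX and Ro 20-1724 (each […]), then stimulated 30 min with PGE2 at EC80; 1% DMSO. cAMP was read by competitive HTRF (665/620 nm); IC50 came from non-linear regression, with agonist-only as 0% and no-agonist as 100% inhibition.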

[2] = tested on: Adjuvant Induced Arthritis (AIA) Model in Female Lewis Rats; assay: Suppression of arthritis development in adjuvant induced arthritis (AIA) model, arthritis score; assay type: in vivo, rat; settings: PO; for % reduction in arthritis score: day 14 to day 23, compared to vehicle treatment at end of study period; for ED50: Rattus norvegicus, BID, female Lewis rats
Protocol: Adjuvant arthritis was induced on day 1 in female Lewis rats (10-12 weeks) by intradermal injection of heat killed Mycobacterium tuberculosis in complete freund's adjuvant (CFA) intradermally (Mycobacterium tuberculosis 100 mg in 5 mL incomplete freunds adjuvant, 200 μL per rat). Animals were randomized into different treatment groups, each group consist of 8 animals based on clinical scores on day 14. The animals in control group were given CFA and in second control group were administered with CFA and vehicle (1% Tween-80+0.5% CMC, quantity sufficient, 3 ml/kg, PO), where as animals in experimental groups were treated with CFA and EP4 antagonist (Example B2 and Example B4) in therapeutic fashion orally twice a day (BID) from day 14 to day 23 at 0.1, 0.3, 1, 3, 10 and 30 mg/kg doses.
Animals were evaluated for clinical symptoms and scored accordingly for inflamed paws and erythema. The scorer was blind to the treatment groups. Key findings for example B2 (Refer FIG. 1) and B4 (Refer FIG. 2) in rat arthritis model are as follows.

[3] = molecular target: T2, human EP4 receptor (Homo sapiens, UniProt P35408); assay: hEP4 radioligand binding assay ([3H] PGE2 competitive binding, membrane fractions); settings: 300 nM compound; 1 nM [3H] PGE2
T2 construct: expressed in transfected cells; host or cells: FreeStyle293 (HEK293F) cells, transient transfection with pcDNA3.1(+), total membrane fraction
T2 sequence (P35408 whole entry): as above
Method in brief: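 Membranes from FreeStyle293 (HEK293F) cells transiently expressing full-length human EP4; 10 μg protein incubated with compound and 1 nM [3H]PGE2 in 50 mM Tris-HCl pH 6.0, 10 mM MgCl2, 0.5 mM EDTA, 1% DMSO, 2 h at room temperature. Nonspecific binding with 10 μM unlabeled PGE2; filtration and scintillation counting; Ki by one-site fit.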

inhibition at 1 µM [1] [%]	inhibition at 0.3 µM [3] [%]	Compound	% reduction in arthritis score ([2]; 0.1 mg/kg BID) [%]	% reduction in arthritis score ([2]; 0.3 mg/kg BID) [%]	% reduction in arthritis score ([2]; 1 mg/kg BID) [%]	% reduction in arthritis score ([2]; 3 mg/kg BID) [%]	% reduction in arthritis score ([2]; 10 mg/kg BID) [%]	% reduction in arthritis score ([2]; 30 mg/kg BID) [%]	ED50 [2] [mg/kg]
100	98	C[C@H](Nc1nccc2c1N(Cc1cccc(Cl)c1)CCO2)c1ccc(C(=O)O)cc1 [Example B2, 4-[(1S)-1-[[4-[(3-Chlorophenyl)methyl]-2,3-dihydropyrido[4,3-b][1,4]oxazin-5-yl]amino]ethyl]benzoic acid]	23	45	46	67	68	71	0.76
97	83	O=C(O)c1ccc(C2(Nc3nccc4c3N(Cc3ccc(F)c(F)c3)CCO4)CC2)cc1 [Example B4, 4-[1-[[4-[(3,4-Difluorophenyl)methyl]-2,3-dihydropyrido[4,3-b][1,4]oxazin-5-yl]amino]cyclopropyl]benzoic acid]	3	4	27	39	51	55	8.8
